Measured values reported in US9018224B2, “Substituted cyclopropyl compounds useful as GPR119 agonists” (Merck Sharp & Dohme Corp., priority 2011, dated 2015).

Biological target: T1, human GPR119 (Homo sapiens, UniProt Q8TDV5)
T1 sequence (Q8TDV5 1-308 limits assumed): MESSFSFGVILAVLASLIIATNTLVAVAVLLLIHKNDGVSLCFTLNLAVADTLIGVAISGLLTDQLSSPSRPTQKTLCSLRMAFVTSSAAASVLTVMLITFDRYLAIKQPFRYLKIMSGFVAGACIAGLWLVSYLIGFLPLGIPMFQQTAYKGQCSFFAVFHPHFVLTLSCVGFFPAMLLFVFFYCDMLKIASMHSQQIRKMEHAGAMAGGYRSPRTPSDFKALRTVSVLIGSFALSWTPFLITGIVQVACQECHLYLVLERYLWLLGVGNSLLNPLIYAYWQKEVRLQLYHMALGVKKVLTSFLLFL
Test: Measurement of GPR119 signaling by cAMP (LANCE cAMP kit or HTRF) in HEK293 cells transfected with human GPR119
Type: cell-based
Conditions: agonist cAMP response in HEK293 cells stably transfected with human GPR119; patent does not say which of the two cAMP formats (LANCE or HTRF)
In short: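 LANCE TR-FRET cAMP readout; detection with Eu-SA/biotin-cAMP tracer for 3 h, signal converted to cAMP via standard curve, duplicates, 4-parameter fit vs DMSO basal and internal agonist maximum.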

SMILES | EC50 [nM]
CCOCc1cnc(N2CCC([C@H]3C[C@H]3CCOc3ccc(CC(=O)N4CCC4)c(F)c3)CC2)nc1 [Example 200] | 0.79
CCOCc1cnc(N2CCC([C@H]3C[C@H]3CCOc3ccc(CC(=O)N4CC(F)C4)c(F)c3)CC2)nc1 [Example 201] | 0.49
CCOCc1cnc(N2CCC([C@H]3C[C@H]3CCOc3ccc(CC(=O)N4CC(F)(F)C4)c(F)c3)CC2)nc1 [Example 202] | 0.3
CCOCc1cnc(N2CCC([C@H]3C[C@H]3CCOc3ccc(CC(=O)N4CC(OC)C4)c(F)c3)CC2)nc1 [Example 203] | 1.2
CCOCc1cnc(N2CCC([C@H]3C[C@H]3CCOc3ccc(CC(=O)N(C)C)c(F)c3)CC2)nc1 [Example 204] | 1.2
CC(C)(O)c1cnc(N2CCC([C@H]3C[C@H]3CCOc3ccc(CC(=O)N4CCC4)c(F)c3)CC2)nc1 [Example 205, 1-(azetidin-1-yl)-2-(2-fluoro-4-{2-[(1S,2R)-2-{1-[5-(2-hydroxypropan-2-yl]pyrimidin-2-yl]piperidin-4-yl}cyclopropyl]ethoxy}phenyl)ethanone] | 7.5
CC(C)(O)c1cnc(N2CCC([C@H]3C[C@H]3CCOc3cc(F)c(CC(=O)N4CCC4)c(F)c3)CC2)nc1 [Example 206] | 0.71
CCc1cnc(N2CCC([C@H]3C[C@H]3CCOc3ccc(CC(=O)N4CCC4)c(F)c3)CC2)nc1 [Example 207, 1-(azetidin-1-yl)-2-[4-(2-{(1S,2R)-2-[1-(5-ethylpyrimidin-2-yl)piperidin-4-yl]cyclopropyl}ethoxy)-2-fluorophenyl]ethanone] | 0.4
CCc1cnc(N2CCC([C@H]3C[C@H]3CCOc3ccc(CC(=O)NC4CC4)c(F)c3)CC2)nc1 [Example 208] | 1.9
COCc1cnc(N2CCC([C@H]3C[C@H]3CCOc3cc(F)c(CC(=O)N(C)C)cc3F)CC2)nc1 [Example 209, 2-{2,5-difluoro-4-[2-((1S,2R)-2-{1-[5-(methoxymethyl)pyrimidin-2-yl]piperidin-4-yl}cyclopropyl)ethoxy]phenyl}-N, N-dimethylacetamide] | 1.6
COc1cnc(N2CCC([C@H]3C[C@H]3CCOc3cc(F)c(CC(=O)N4CC(O)C4)c(F)c3)CC2)nc1 [Example 210, 2-[2,6-difluoro-4-(2-{(1S,2R)-2-[1-(5-methoxypyrimidin-2-yl)piperidin-4-yl]cyclopropyl}ethoxy)phenyl]-1-(3-hydroxyazetidin-1-yl)ethanone] | 0.59
COc1cnc(N2CCC([C@H]3C[C@H]3CCOc3cc(F)c(CC(=O)N4CC(OC)C4)c(F)c3)CC2)nc1 [Example 211] | 0.11
COc1cnc(N2CCC([C@H]3C[C@H]3CCOc3cc(F)c(CC(=O)N4CC(C)(O)C4)c(F)c3)CC2)nc1 [Example 212] | 0.88
COc1cnc(N2CCC([C@H]3C[C@H]3CCOc3cc(F)c(CC(=O)N(C)C)c(F)c3)CC2)nc1 [Example 213] | 0.23
COc1cnc(N2CCC([C@H]3C[C@H]3CCOc3cc(F)c(CC(=O)N4CCC4)c(F)c3)CC2)nc1 [Example 214] | 0.2
COc1cnc(N2CCC([C@H]3C[C@H]3CCOc3cc(F)c(CC(=O)N4CCOCC4)c(F)c3)CC2)nc1 [Example 215] | 0.29
COc1cnc(N2CCC([C@H]3C[C@H]3CCOc3cc(F)c(CC(=O)N4CC(F)C4)c(F)c3)CC2)nc1 [Example 216] | 0.09
COc1cnc(N2CCC([C@H]3C[C@H]3CCOc3cc(F)c(CC(=O)N4CC(F)(F)C4)c(F)c3)CC2)nc1 [Example 217] | 0.07
COCc1cnc(N2CCC([C@H]3C[C@H]3CCOc3cc(F)c(CC(=O)N4CC(O)C4)c(F)c3)CC2)nc1 [Example 218, 1-({2,6-difluoro-4-[2-((1S,2R)-2-{1-[5-(methoxymethyl)pyrimidin-2-yl]piperidin-4-yl}cyclopropyl)ethoxy]phenyl}acetyl)azetidin-3-ol] | 1.6

SMILES | EC50 [nM]
COCc1cnc(N2CCC([C@H]3C[C@H]3CCOc3cc(F)c(CC(=O)N4CCC4)c(F)c3)CC2)nc1 [Example 219, 1-(azetidin-1yl)-2-(2,6-difluoro-4-{2[(1S,2R)-2-{1-[5-(methoxylmethyl)pyrimidin-2yl]piperidin-4-yl}cyclopropyl]ethoxyl}phenyl)ethanone] | 0.18
COCc1cnc(N2CCC([C@H]3C[C@H]3CCOc3cc(F)c(CC(=O)N4CC(F)C4)c(F)c3)CC2)nc1 [Example 220] | 0.14
COCc1cnc(N2CCC([C@H]3C[C@H]3CCOc3cc(F)c(CC(=O)N4CC(C)(O)C4)c(F)c3)CC2)nc1 [Example 221] | 2.1
COCc1cnc(N2CCC([C@H]3C[C@H]3CCOc3cc(F)c(CC(=O)N4CC(C(C)(C)O)C4)c(F)c3)CC2)nc1 [Example 222] | 2
COCc1cnc(N2CCC([C@H]3C[C@H]3CCOc3cc(F)c(CC(=O)N4CCOCC4)c(F)c3)CC2)nc1 [Example 223] | 0.38
COCc1cnc(N2CCC([C@H]3C[C@H]3CCOc3cc(F)c(CC(=O)N(C)C)c(F)c3)CC2)nc1 [Example 224] | 0.4
COCc1cnc(N2CCC([C@H]3C[C@H]3CCOc3cc(F)c(CC(=O)N4CC(OC)C4)c(F)c3)CC2)nc1 [Example 225] | 0.35
COCc1cnc(N2CCC([C@H]3C[C@H]3CCOc3cc(F)c(CC(=O)N(C)C4COC4)c(F)c3)CC2)nc1 [Example 226] | 0.41
CNC(=O)Cc1c(F)cc(OCC[C@@H]2C[C@@H]2C2CCN(c3ncc(COC)cn3)CC2)cc1F [Example 227] | 2.5
COCc1cnc(N2CCC([C@H]3C[C@H]3CCOc3cc(F)c(CC(=O)N4CCCC4)c(F)c3)CC2)nc1 [Example 228] | 0.2
CCOc1cnc(N2CCC([C@H]3C[C@H]3CCOc3cc(F)c(CC(=O)N4CCC4)c(F)c3)CC2)nc1 [Example 229, 1-(azetidin-1-yl)-2-[4-(2-{(1S,2R)-2-[1-(5-ethoxypyrimidin-2-yl)piperidin-4-yl]cyclopropyl}ethoxy)-2,6-difluorophenyl]ethanone] | 0.14
CCOc1cnc(N2CCC([C@H]3C[C@H]3CCOc3cc(F)c(CC(=O)N4CC(F)C4)c(F)c3)CC2)nc1 [Example 230] | 0.11
CCOc1cnc(N2CCC([C@H]3C[C@H]3CCOc3cc(F)c(CC(=O)N4CC(F)(F)C4)c(F)c3)CC2)nc1 [Example 231] | 0.13
CCOc1cnc(N2CCC([C@H]3C[C@H]3CCOc3cc(F)c(CC(=O)N4CC(O)C4)c(F)c3)CC2)nc1 [Example 232] | 0.55
CCOc1cnc(N2CCC([C@H]3C[C@H]3CCOc3cc(F)c(CC(=O)N4CC(C)(O)C4)c(F)c3)CC2)nc1 [Example 233] | 0.66
CCOc1cnc(N2CCC([C@H]3C[C@H]3CCOc3cc(F)c(CC(=O)N(C)C)c(F)c3)CC2)nc1 [Example 234] | 0.26
CCOc1cnc(N2CCC([C@H]3C[C@H]3CCOc3cc(F)c(CC(=O)N4CCOCC4)c(F)c3)CC2)nc1 [Example 235] | 0.26
CCOc1cnc(N2CCC([C@H]3C[C@H]3CCOc3cc(F)c(CC(=O)N4CC(OC)C4)c(F)c3)CC2)nc1 [Example 236] | 0.12
